Experimental findings from US6716834B2, “Thiochromane derivatives and their use as thrombin inhibitors” (AstraZeneca AB, priority 2000, dated 2004) are described below.

The structures appear in SMILES notation.

Data set [1] is described as follows: Test G: Metabolic Activation of Prodrug Compounds in vitro. It is filed as in vitro ADME, human or rat. On the procedure: Metabolic Activation of Prodrug Compounds in vitro
Prodrug compounds of formula IA are incubated at 37° C. with liver microsomes or 10 000 g (referring to the centrifuge speed) supernatant fractions (i.e. s9 fraction) prepared from human or rat liver homogenate. The total protein concentration in the incubations are 1 or 3 mg/mL dissolved in 0.05 mol/L TRIS buffer (pH 7.4), and with the cofactors NADH (2.5 mmol/L) and NADPH (0. 8 mmol/L) present. The total volume of the incubate is 1.2 mL. The initial prodrug concentrations are 5 or 10 ? mol/L. Samples are collected from the incubate at regular is intervals more than 60 minutes after the start of the incubations. Samples (25 ? L) from the incubate are mixed with an equal volume of human or rat plasma and an appropriate amount of thrombin, and the clotting time (i.e. thrombin time) is measured on a coagulometer (KC 10; Amelung). The amount of “active” thrombin inhibitor formed is estimated by the use of standard curves relating the thrombin time in pooled citrated human or rat plasma to known concentrations of the corresponding “active thrombin inhibitor”.
The amount of “active” thrombin inhibitor is alternatively, or in addition to the above-mentioned method, estimated by the use of LC-MS.

The next data set deals with T1, Human thrombin (Homo sapiens, UniProt P00734).
T1 construct: purchased Sigma Chem. Co or Hematologic Technologies T 6769
Kind of data set: Test A: Determination of Thrombin Clotting Time (TT). Type of data set: biochemical. The following applies: concentration of inhibitor that doubles the thrombin clotting time in plasma. On the procedure:
Determination of Thrombin Clotting Time (TT)
The inhibitor solution (25 ? L) is incubated with plasma (25 ? L) for three minutes. Human thrombin (T 6769; Sigma Chem. Co or Hematologic Technologies) in buffer solution, pH 7.4 (25 ? L, 4.0 NIH units/mL), is then added and the clotting time measured in an automatic device (KC 10; Amelung).
The thrombin clotting time (TT) is expressed as absolute values (seconds) as well as the ratio of TT without inhibitor (TT0) to TT with inhibitor (TTi). The latter ratios (range 1-0) are plotted against the concentration of inhibitor (log transformed) and fitted to sigmoidal dose-response curves according to the equation
where: a=maximum range, i.e. 1; s=slope of the dose-response curve; and IC50=the concentration of inhibitor that doubles the clotting time. The calculations are processed on a PC using the software program GraFit Version 3, setting equation equal to: Start at 0, define end=1 (Erithacus Software, Robin Leatherbarrow, Imperial College of Science, London, UK).

Data set [2] is described as follows: Test E: Determination of Thrombin Time ex vivo (bioavailability of active inhibitor after prodrug administration). Type of data set: in vivo. The following applies: rat. The source says:
Determination of Thrombin Time ex vivo
The inhibition of thrombin after oral or parenteral administration of the compounds of formula I, dissolved in ethanol:Solutol3:water (5:5:90), is examined in conscious rats which, one or two days prior to the experiment, are equipped with a catheter for blood sampling from the carotid artery. On the experimental day blood samples are withdrawn at fixed times after the administration of the compound into plastic tubes containing 1 part sodium citrate solution (0.13 mol per L) and 9 parts of blood. The tubes are centrifuged to obtain platelet poor plasma. The plasma is used for determination of thrombin time or ecarin clotting time (ECT) as described below.
The citrated rat plasma, 100 ? L, is diluted with a saline solution, 0.9%, 100 ? […] The clotting time is measured in an automatic device (KC 10, Amelung, Germany). […]
Based on the estimated plasma concentrations of the active thrombin inhibitor (which assumes that thrombin time or ECT prolongation is caused by the aforementioned compound) in the rat, the area under the curve after oral and/or parenteral administration of the corresponding prodrug compound of formula I is calculated (AUCpd) using the trapezoidal rule and extrapolation of data to infinity.
The bioavailability of the active thrombin inhibitor after oral or parenteral administration of the prodrug is calculated as below: […]

With `COc1cc(Cl)cc2c1S(=O)(=O)CC[C@]2(O)C(=O)N1CC[C@H]1C(=O)NCc1ccc(C(N)=NC(=O)OC2CCCC2)cc1` [Example 5, (R)-6-Chloro-4-hydroxy-8-methoxy-1,1-dioxothiochromane-4-yl-C(O)-Aze-Pab(C(O)-O-cyclopentyl)], the “oral and/or parenteral bioavailability as the corresponding active inhibitor (free amidine)” value in data set [1] was “exhibit oral and/or parenteral bioavailability in the rat as the corresponding active inhibitor (free amidine)”. Take `N=C(N)c1ccc(CNC(=O)[C@@H]2CCN2C(=O)[C@@]2(O)CCS(=O)(=O)c3ccc(Cl)cc32)cc1` [Example 3, (R)-6-Chloro-4-hydroxy-1,1-dioxothiochromane-4-yl-C(O)-Aze-Pab]: the concentration for half-maximal inhibition (IC50) against Human thrombin is < 50 nM.

`COc1cc(Cl)cc2c1S(=O)(=O)CC[C@]2(O)C(=O)N1CC[C@H]1C(=O)NCc1ccc(C(N)=NOCc2ccccc2)cc1` [Example 4, (R)-6-Chloro-4-hydroxy-8-methoxy-1,1-dioxothiochromane-4-yl-C(O)-Aze-Pab(OBn)]: the “oral and/or parenteral bioavailability as the corresponding active inhibitor (free amidine)” value in data set [1] was “exhibit oral and/or parenteral bioavailability in the rat as the corresponding active inhibitor (free amidine)”.

Consider `COc1cc(Cl)cc2c1[S+]([O-])CCC2(O)C(=O)N1CCC1C(=O)NCc1ccc(C(=N)N)cc1` (single isomer, unassigned) [Example 8, 6-Chloro-4-(R)-hydroxy-8-methoxy-1-(R or S)-oxo-thiochromane-4-yl-C(O)-Aze-PabxTFA], for which, on Human thrombin, the concentration for half-maximal inhibition (IC50) is < 50 nM.

As to `CON=C(N)c1ccc(CNC(=O)[C@@H]2CCN2C(=O)[C@@]2(O)CCS(=O)(=O)c3c(Cl)cc(Cl)cc32)cc1` [Example 6, (R)-6,8-Dichloro-4-hydroxy-1,1-dioxothiochromane-4-yl-C(O)-Aze-Pab(OMe)], the “oral and/or parenteral bioavailability as the corresponding active inhibitor (free amidine)” value in data set [2] and in data set [1] (Test G as printed) was “exhibit oral and/or parenteral bioavailability in the rat as the corresponding active inhibitor (free amidine)” each time. Turning to `N=C(N)c1ccc(CNC(=O)C2CCN2C(=O)C2(O)CCS(=O)(=O)c3c(OC(F)F)cc(Cl)cc32)cc1` (centres unmarked) [Example 7, 6-Chloro-8-difluoromethoxy-4-hydroxy-1,1-dioxothiochromane-4-yl-C(O)-Aze-Pab], at Human thrombin, the IC50 is < 50 nM. Still for that read-out and setting: the same measure for `COc1cc(Cl)cc2c1S(=O)(=O)CC[C@]2(O)C(=O)N1CC[C@H]1C(=O)NCc1ccc(C(=N)N)cc1` [Example 1, (R)-6-Chloro-4-hydroxy-8-methoxy-1,1-dioxothiochromane-4-yl-C(O)-Aze-Pab]: < 50 nM.

For orientation: IC50 means the midpoint of a concentration-inhibition curve.
